Experimental findings from patent US20250243189A1, “HERBICIDAL IMIDAZOLE-CONTAINING COMPOUNDS” (SYNGENTA CROP PROTECTION AG, priority 2022, published 2025) are described below.

Assay type in all cases: in vivo
Holding throughout (details): 250 g/ha, evaluated after 13 days, five-point scale

Assay [1] has as its system Amaranthus retoflexus (AMARE). The experiment in a line: Pre-emergence herbicidal glasshouse test. How it is done:
(§1) Seeds of a variety of test species are sown in standard soil in pots Amaranthus retoflexus (AMARE), Echinochloa crus-galli (ECHCG), Setaria faberi (SETFA)). After cultivation for one day (pre-emergence) or after 8 days cultivation (post-emergence) under controlled conditions in a glasshouse (at 24/16° C., day/night; 14 hours light; 65% humidity), the plants are sprayed with an aqueous spray solution derived from the formulation of the technical active ingredient in acetone/water (50:50) solution containing 0.5% Tween 20 (polyoxyethelyene sorbitan monolaurate, CAS RN 9005-64-5). Compounds are applied at 250 g/ha unless otherwise stated. The test plants are then grown in a glasshouse under controlled conditions in a glasshouse (at 24/16° C., day/night; 14 hours light; 65% humidity) and watered twice daily. After 13 days for pre and post-emergence, the test is evaluated for the percentage damage caused to the plant. The biological activities are shown in the following table on a five-point scale (5=81-100%; 4=61-80%; 3=41-60%; 2=21-40%; 1=0-20%).

In assay [2] the test system is Echinochloa crus-galli (ECHCG). The experiment in a line: Pre-emergence herbicidal glasshouse test. As for the experimental part: as §1
Assay [3] concerns IPOHE. The experiment in a line: Pre-emergence herbicidal glasshouse test. As for the experimental part:
as §1

In assay [4] the test system is AMAPA. The experiment in a line: Pre-emergence herbicidal glasshouse test. As for the experimental part: [Worded in the source for another organism; this organism is reported under the same test.] as §1
The subject of assay [5] is Amaranthus retoflexus (AMARE). The experiment in a line: Post-emergence herbicidal glasshouse test. How it is done: as §1
The subject of assay [6] is Echinochloa crus-galli (ECHCG). The assay is described as follows: Post-emergence herbicidal glasshouse test. As for the experimental part:
as §1

In assay [7] the test system is IPOHE. The assay is described as follows: Post-emergence herbicidal glasshouse test. As for the experimental part: as §1
Assay [8] deals with AMAPA. The assay is described as follows: Post-emergence herbicidal glasshouse test. How it is done: [Worded in the source for another organism; this organism is reported under the same test.] as §1

Turning to `FC(F)n1cc(-c2nc(C(F)(F)F)cn2Cc2ncc(Cl)cn2)cn1` [Compound 1.017], the “percentage damage caused to the plant, AMARE” value in assay [1] and in assay [5] was 5 (5=81-100%) in each case. Also, the “percentage damage caused to the plant, ECHCG” value in assay [2] and in assay [6] was 5 (5=81-100%) in each case. The “percentage damage caused to the plant, IPOHE” value in the assay on IPOHE [3] and in the assay with IPOHE [7] was 5 (5=81-100%) throughout. Besides, the “percentage damage caused to the plant, AMAPA” value in the assay with AMAPA [4] and with AMAPA [8] was 5 (5=81-100%) throughout.

For `Fc1ccc(Cn2cc(C(F)(F)F)nc2-c2ccc(Cl)s2)nc1` [Compound 1.050], the “percentage damage caused to the plant, AMARE” value in assay [1] is listed as 5 (5=81-100%); in assay [5], 4 (4=61-80%). Also, the “percentage damage caused to the plant, ECHCG” value in assay [2] is on record as 5 (5=81-100%); in assay [6], 4 (4=61-80%). Moreover, the “percentage damage caused to the plant, IPOHE” value with IPOHE [3] is 5 (5=81-100%); in the assay on IPOHE [7], 4 (4=61-80%). The “percentage damage caused to the plant, AMAPA” value with AMAPA [4] is 5 (5=81-100%); in the assay with AMAPA [8], 4 (4=61-80%).

With `N#Cc1ccc(-c2nc(C(F)(F)F)cn2Cc2ncc(Cl)cn2)s1` [Compound 1.027], the “percentage damage caused to the plant, AMARE” value in assay [1] and in assay [5] was 5 (5=81-100%) in each case. For the same compound, the “percentage damage caused to the plant, ECHCG” value in assay [2] and in assay [6] was 5 (5=81-100%) in each case. The results for the “percentage damage caused to the plant, IPOHE” value in the assay on IPOHE [3] and with IPOHE [7] were 5 (5=81-100%) and 4 (4=61-80%), respectively. Moreover, the “percentage damage caused to the plant, AMAPA” value in the assay on AMAPA [4] and with AMAPA [8] was 5 (5=81-100%) in each case.

On to `Cn1cc(Cl)c(-c2nc(C(F)(F)F)cn2Cc2ncc(Cl)cn2)n1` [Compound 1.043], for which the “percentage damage caused to the plant, AMARE” value in assay [1] and in assay [5] was 1 (1=0-20%) in each case. Further, the “percentage damage caused to the plant, ECHCG” value in assay [2] and in assay [6] was 1 (1=0-20%) in each case. Moreover, the “percentage damage caused to the plant, IPOHE” value in the assay on IPOHE [3] and in the assay on IPOHE [7] was 1 (1=0-20%) each time. Moreover, the “percentage damage caused to the plant, AMAPA” value with AMAPA [4] and in the assay with AMAPA [8] was 1 (1=0-20%) in each case.

Take `FC(F)(F)c1cn(Cc2ncc(Cl)cn2)c(-c2sc(Cl)nc2Cl)n1` [Compound 1.046]: the “percentage damage caused to the plant, AMARE” value is recorded as 1 (1=0-20%) in assay [1] and 2 (2=21-40%) in assay [5]. The “percentage damage caused to the plant, ECHCG” value in assay [2] and in assay [6] was 1 (1=0-20%) in each case. The “percentage damage caused to the plant, IPOHE” value in the assay with IPOHE [3] and in the assay with IPOHE [7] was 1 (1=0-20%) in each case. Also, the “percentage damage caused to the plant, AMAPA” value in the assay on AMAPA [4] is 4 (4=61-80%); with AMAPA [8], 2 (2=21-40%).

In the case of `Cc1cnc(Cn2cc(C(F)(F)F)nc2-c2ccc(Cl)s2)nc1` [Compound 1.072], the “percentage damage caused to the plant, AMARE” value in assay [1] and in assay [5] was 5 (5=81-100%) throughout. For the same compound, the “percentage damage caused to the plant, ECHCG” value in assay [2] and in assay [6] was 5 (5=81-100%) throughout. Besides, the “percentage damage caused to the plant, IPOHE” value is listed as 5 (5=81-100%) in the assay on IPOHE [3] and 4 (4=61-80%) with IPOHE [7]. The “percentage damage caused to the plant, AMAPA” value in the assay on AMAPA [4] and with AMAPA [8] was 5 (5=81-100%) in each case.

Take `FC(F)(F)c1cn(Cc2ncc(Cl)cn2)c(-c2scnc2Cl)n1` [Compound 1.045]: the “percentage damage caused to the plant, AMARE” value is on record as 5 (5=81-100%) in assay [1] and 4 (4=61-80%) in assay [5]. For the same compound, the results for the “percentage damage caused to the plant, ECHCG” value in assay [2] and in assay [6] were 1 (1=0-20%) and 2 (2=21-40%), respectively. The “percentage damage caused to the plant, IPOHE” value in the assay on IPOHE [3] is 5 (5=81-100%); in the assay on IPOHE [7] it was 4 (4=61-80%). Moreover, the “percentage damage caused to the plant, AMAPA” value is 5 (5=81-100%) in the assay on AMAPA [4] and 4 (4=61-80%) in the assay with AMAPA [8].

Consider `Fc1ccc(-c2nc(C(F)(F)F)cn2Cc2ncc(Cl)cn2)s1` [Compound 1.038], for which the “percentage damage caused to the plant, AMARE” value in assay [1] and in assay [5] was 5 (5=81-100%) throughout. For the same compound, the “percentage damage caused to the plant, ECHCG” value in assay [2] and in assay [6] was 5 (5=81-100%) in each case. In addition, the “percentage damage caused to the plant, IPOHE” value with IPOHE [3] was 5 (5=81-100%); in the assay with IPOHE [7] it was 4 (4=61-80%). In addition, the “percentage damage caused to the plant, AMAPA” value in the assay on AMAPA [4] is reported as 5 (5=81-100%); with AMAPA [8] it was 4 (4=61-80%).

Take `FC(F)(F)c1cn(Cc2ncc(Cl)cn2)c(-c2cc(Cl)cs2)n1` [Compound 1.010]: the figures for the “percentage damage caused to the plant, AMARE” value in assay [1] and in assay [5] were 5 (5=81-100%) and 4 (4=61-80%), respectively. In addition, the “percentage damage caused to the plant, ECHCG” value was 5 (5=81-100%) in assay [2] and 4 (4=61-80%) in assay [6]. The “percentage damage caused to the plant, IPOHE” value with IPOHE [3] and with IPOHE [7] was 4 (4=61-80%) throughout. The results for the “percentage damage caused to the plant, AMAPA” value in the assay with AMAPA [4] and in the assay on AMAPA [8] were 5 (5=81-100%) and 4 (4=61-80%), respectively.

On to `FC(F)(F)c1cn(Cc2ncc(Cl)cn2)c(-c2sccc2Br)n1` [Compound 1.044], for which the “percentage damage caused to the plant, AMARE” value in assay [1] is given as 5 (5=81-100%); in assay [5], 2 (2=21-40%). Besides, the “percentage damage caused to the plant, ECHCG” value in assay [2] and in assay [6] was 1 (1=0-20%) in each case. Also, the “percentage damage caused to the plant, IPOHE” value in the assay on IPOHE [3] is 1 (1=0-20%); in the assay on IPOHE [7], 3 (3=41-60%). Besides, the “percentage damage caused to the plant, AMAPA” value is given as 5 (5=81-100%) in the assay with AMAPA [4] and 2 (2=21-40%) in the assay on AMAPA [8].

On to `Cc1ncsc1-c1nc(C(F)(F)F)cn1Cc1ncc(Cl)cn1` [Compound 1.042], for which the “percentage damage caused to the plant, AMARE” value in assay [1] and in assay [5] was 5 (5=81-100%) throughout. In addition, the “percentage damage caused to the plant, ECHCG” value in assay [2] was 5 (5=81-100%); in assay [6] it was 4 (4=61-80%). Moreover, the results for the “percentage damage caused to the plant, IPOHE” value with IPOHE [3] and in the assay with IPOHE [7] were 5 (5=81-100%) and 4 (4=61-80%), respectively. Also, the “percentage damage caused to the plant, AMAPA” value in the assay with AMAPA [4] and in the assay with AMAPA [8] was 5 (5=81-100%) each time.

For `FC(F)(F)c1cn(Cc2ncc(Cl)cn2)c(-c2ncco2)n1` [Compound 1.019], the “percentage damage caused to the plant, AMARE” value in assay [1] and in assay [5] was 1 (1=0-20%) in each case. For the same compound, the “percentage damage caused to the plant, ECHCG” value in assay [2] and in assay [6] was 1 (1=0-20%) in each case. For the same compound, the “percentage damage caused to the plant, IPOHE” value with IPOHE [3] and in the assay on IPOHE [7] was 1 (1=0-20%) throughout. The “percentage damage caused to the plant, AMAPA” value in the assay on AMAPA [4] and in the assay on AMAPA [8] was 1 (1=0-20%) throughout.

Take `FC(F)(F)c1cn(Cc2ncc(Cl)cn2)c(-c2cnco2)n1` [Compound 1.020]: the “percentage damage caused to the plant, AMARE” value in assay [1] was 5 (5=81-100%); in assay [5], 3 (3=41-60%). Moreover, the “percentage damage caused to the plant, ECHCG” value in assay [2] and in assay [6] was 1 (1=0-20%) throughout. In addition, the “percentage damage caused to the plant, IPOHE” value with IPOHE [3] and in the assay on IPOHE [7] was 4 (4=61-80%) throughout. Moreover, the “percentage damage caused to the plant, AMAPA” value with AMAPA [4] is listed as 3 (3=41-60%); in the assay with AMAPA [8], 2 (2=21-40%).

As for `FC(F)c1cn(Cc2ncc(Cl)cn2)c(-c2ccc(Cl)s2)n1` [Compound 1.058, 5-chloro-2-[[2-(5-chloro-2-thienyl)-4-(difluoromethyl)imidazol-1-yl]methyl]pyrimidine], the “percentage damage caused to the plant, AMARE” value in assay [1] and in assay [5] was 5 (5=81-100%) in each case. Also, the “percentage damage caused to the plant, ECHCG” value in assay [2] is 5 (5=81-100%); in assay [6], 4 (4=61-80%). Besides, the “percentage damage caused to the plant, IPOHE” value with IPOHE [3] is 5 (5=81-100%); in the assay with IPOHE [7], 4 (4=61-80%). Further, the “percentage damage caused to the plant, AMAPA” value with AMAPA [4] and in the assay on AMAPA [8] was 5 (5=81-100%) each time.
